Data from ChEMBL document CHEMBL1287745, “AdoHcy hydrolase of Trichomonas vaginalis: studies of the effects of 5'-modified adenosine analogues and related 6-N-cyclopropyl derivatives” (Bioorg Med Chem Lett, 2010).
In brackets after ≈: the same amount, converted by molar mass. Several values for one entry are separate records, joined by “and”; a condition that tells them apart may be missing. Equal values may be shown once.

Assays:
Trichomonas vaginalis [1] = assay: Antiparasitic activity against Trichomonas vaginalis T1 at […] after 24 hrs by hemocytometric analysis; assay type: functional
Trypanosoma = assay: Antimicrobial activity against Trypanosoma; assay type: functional, organism-based
Trichomonas vaginalis [2] = assay: […] activity against Trichomonas vaginalis T1; assay type: functional, organism-based
[3] = Trichomonas vaginalis, T1, read-out: IC50

SMILES | growth inhibition (GI) (Trichomonas vaginalis [1]) [%] | IC50 (Trichomonas vaginalis [2]; [3]) | further results
O[C@@H]1[C@H](O)[C@@H](C=CF)O[C@H]1n1cnc2c(NC3CC3)ncnc21 | 10 | – | IC50 (Trypanosoma; Trypanosoma, read-out: IC50): 19 µg/mL (≈ 59.1 µM)
Nc1ncnc2c1ncn2[C@@H]1O[C@H](/C=C/C#CI)[C@@H](O)[C@H]1O | 34 | – | –
Cc1ncc([N+](=O)[O-])n1CCO [METRONIDAZOLE] | – | 0.12 µg/mL (≈ 0.701 µM) | –
Nc1ncnc2c1ncn2[C@@H]1O[C@H](/C=C/I)[C@@H](O)[C@H]1O | 85 | 60 µM and 19 µg/mL | –
ON=C[C@H]1O[C@@H](n2cnc3c(NC4CC4)ncnc32)[C@H](O)[C@@H]1O | 41 | – | IC50 (Trypanosoma): Not Active
Nc1ncnc2c1ncn2[C@@H]1O[C@H](C=NO)[C@@H](O)[C@H]1O | 93 | 40 µM and 11 µg/mL | –
Nc1ncnc2c1ncn2[C@@H]1O[C@H](C(=O)O)[C@@H](O)[C@H]1O [5'-CARBOXY ADENOSINE] | 17 | – | –
Nc1ncnc2c1ncn2[C@@H]1C[C@H](C(=O)O)[C@@H](O)[C@H]1O | 36 | – | –
Nc1ncnc2c1ncn2[C@@H]1O[C@H](/C=C/CCCC(=O)O)[C@@H](O)[C@H]1O | 22 | – | –
COC(=O)C(O)CCn1cnc2c(N)ncnc21 (stereo not given) | 16 | – | –
O[C@@H]1[C@H](O)[C@@H](C=CI)O[C@H]1n1cnc2c(NC3CC3)ncnc21 | 24 | – | IC50 (Trichomonas vaginalis [2]): Not Active; IC50 (Trypanosoma; Trypanosoma, read-out: IC50): 12 µg/mL (≈ 28 µM)
COC(=O)[C@H]1O[C@@H](n2cnc3c(N)ncnc32)[C@H](O)[C@@H]1O | 4 | – | –
O[C@@H]1[C@H](O)[C@@H](C=C(Br)Br)O[C@H]1n1cnc2c(NC3CC3)ncnc21 | 12 | – | IC50 (Trypanosoma): Not Active
Nc1ncnc2c1ncn2[C@@H]1C[C@H](CO)[C@@H](O)[C@H]1O [ARISTEROMYCIN] | 95 | 10 µM and 3 µg/mL | –
Nc1ncnc2c1ncn2[C@@H]1O[C@H](/C=C\I)[C@@H](O)[C@H]1O | 81 | 76 µM and 24 µg/mL | –
Nc1ncnc2c1ncn2CCC(O)CO (stereo not given) | 11 | – | –
